Legend:
[1] = system: sows; test: Caffeine suppository to sows after birth of first piglet; indices of piglet health and birth interval; type: in vivo, swine
Description: In commercial swine production, typically 8% of the fetuses are stillborn, and 12% of the newborn piglets die prior to weaning (SIVA, 2005). Oxygen deprivation during the birth process is an important causal factor for both stillbirths and neonatal mortality. An indicator for oxygen deprivation is umbilical (blood) pH. This pH is typically 7.4, but upon oxygen deprivation CO2 accumulates in the blood and tissues resulting in a drop in pH. If this drop is severe enough, it will result in the death of the fetus. A moderate drop in pH may not be lethal but may inflict sufficient metabolic damage such that it affects the health and fitness of the newborn and thus its chances of survival. Measurements of umbilical (blood) pH confirmed that this pH drops as the length of parturition increases. Previous work by Randall (1971) has shown a good correlation between umbilical pH and livability of piglets (FIG. 1).
Infrared radiation temperature is another indicator of metabolic health of a mammal. A strong correlation between infrared temperature and survival chances for newborn pigs has been shown. This infrared temperature was obtained by collecting piglets at birth, immediately drying them, and measuring infrared temperature. In a first experiment, 7 sows received a caffeine-comprising suppository (1-2 mg/kg BW, or 400-600 mg) after the birth of the first piglet in a litter. The indices of piglet health as described here above were compared to those of a control group of 6 sows. […] (P=0.04).

[2] = system: sows; test: 400 mg caffeine oral paste to sows after birth of first piglet; duration of parturition; type: in vivo, swine; details: 400 mg oral paste; controls 159 minutes
Experimental: In a second experiment, 19 sows received 400 mg of caffeine comprised in a paste for oral ingestion, in accordance with the invention, after the birth of the first piglet while 19 sows served as untreated controls.
Practically, some untreated animals delivered their litter expediently and with few problems, but there were a substantial number of mothers for whom parturition became a lengthy process.

[3] = Uptake of caffeine into blood (serum) of pregnant sows
Experimental: Blood samples were collected pre-administration and at multiple time points post administration through an ear-vein catheter such that the uptake of caffeine into the blood (serum) could be modelled. Besides the caffeine level, the levels of its main metabolites paraxanthine, theophylline, and theobromine were determined.
This pool was not modelled.

[4] = system: sows; test: 900 mg caffeine oral paste, Velddriel research station; stillbirth and piglet mortality; type: in vivo, swine; details: 900 mg oral paste
Experimental: The method of treatment according to the present invention was further tested at the Provimi research station in Velddriel, the Netherlands, in three farrowing groups. In the Velddriel facility farrowings are not attended by (veterinary) personnel and parturition is thus not actively managed. Stillbirth and mortality rates are thus in line with commercial practices.
Sows were assigned to treatment based on parity. Overall, 27 sows served as controls and 29 were treated in accordance with the present invention when they were expected to farrow in the next 8 hours. Treated sows were administered 900 mg of caffeine comprised in a paste for oral ingestion, in accordance with the invention.

[5] = Transfer of caffeine from the mother to piglets (blood at birth) and colostrum; type: in vivo, swine; details: 900 mg oral paste to sow; same time-point
Description: In order to assess whether caffeine was transferred from the mother to the piglets, blood samples were collected from several piglets at the time of birth and samples from colostrum were taken. […] The concentrations found were dependent on the time relative to dosing the treatment composition. For piglets at birth, they were roughly ¼^th the concentration in the mother at that time-point, and in milk they were roughly ⅙^th the concentration in the mother at that time-point. Values observed were in the range of 0.1 to 1.5 mg/L.

[6] = system: sows; test: 900 mg caffeine oral paste, actively managed farm in Bieganow; type: in vivo, swine; details: for increase in feed consumption of sows: vs control
Experimental: The method of treatment according to the present invention was further tested at a well-managed farm in Bieganow, Poland. In this facility farrowings are attended by (veterinary) personnel and parturition is actively managed. As a result, stillbirth rates are extremely low (0.33 piglets per litter or 3% of the piglets).
At this farm, 89 sows comprising one farrowing group were available for the test. These sows were assigned to receive either a 900 mg of caffeine containing paste in accordance with the invention or no treatment, based on parity, body condition, and historical performance. The treatment composition was administered orally to selected sows when they were expected to farrow in the next 8 hours.

[7] = system: sows; details: intravenous injection of 0.5 mg/50 kg bodyweight, cited from earlier work

Cn1c(=O)c2c(ncn2C)n(C)c1=O [caffeine]
increase of piglet umbilical (blood) pH ([1]; suppository 1-2 mg/kg BW (400-600 mg) vs control sows, P=0.03): 0.044±0.020 units | increase of piglet infrared radiation temperature ([1]; suppository 1-2 mg/kg BW (400-600 mg) vs control sows, P=0.04): 0.60±0.29 °C | numerical increase of birth interval between subsequent piglets ([1]; suppository, P=0.11 (control 9 minutes, P<0.01)): 3.6 minutes for each hour into parturition | mean time interval between the birth of the first and 10th piglet [2]: 110 min | half-life ([3]; female, pig, in vivo): ~22 h | peak blood concentration, second compartment ([3]; pregnant sows, 940 mg of caffeine administered (half that for the 470 mg dose)): ~5 µM | time of peak blood concentration, second compartment ([3]; pregnant sows, post administration): 8 h | bio-availability ([3]; pregnant sows, assuming caffeine distributed in 60% of body mass): 44% | stillborn piglets per litter ([4]; expected to farrow in next 8 hours, control 0.89): 0.31 piglets per litter | piglets died or euthanized for being weak after parturition ([4]; control 1.15): 0.48 piglets per litter | caffeine concentration in milk relative to the concentration in the mother [5]: roughly ⅙ | caffeine concentration in piglets at birth relative to the concentration in the mother [5]: roughly ¼ | difference in stillbirths between treatment groups ([6]; 900 mg oral paste vs no treatment): no statistically significant differences | assistance rate ([6]; 900 mg oral paste, control group 26%): 18% | sows requiring medical care post-farrowing ([6]; 900 mg oral paste, control group seven sows (one died)): no sows required medical care | increase in feed consumption of sows ([6]; first day post farrowing): 14% | increase in feed consumption of sows ([6]; first five days post farrowing): 10% | piglets heavier than controls at weaning ([6]; piglets from treated sows): 9%

CC(C)NCC(O)COc1cccc2[nH]c3ccccc3c12 (centres unmarked) [carazolol]
stillbirth rate ([7]; reduced from 8.3): 7.1% | rate of deliveries lasting more than six hours ([7]; reduced from 14.5): 11.0%

From patent publication US7893070B2, “Method of treating parturient placental mammals in order to reduce maternal and/or uterine exhaustion” (priority 2005, dated 2011)
